Source: patent US20250011265A1, “COMPOSITIONS AND METHODS FOR PRODUCTION OF ANTIMICROBIAL AGENTS FROM BIO-RENEWABLE FEEDSTOCKS” (SOLUGEN, INC., priority 2022, published 2025)
Converted amounts (≈) assume the structure as drawn.

Legend:
[1] = system: General Wild Strain Bacteria (Pseudomonas aeruginosa and Enterobacter aggolomerans); experiment: Microtiter MIC study, general aerobic bacteria; format: cell-based
Protocol: (§1) All three different heat incubated GDA samples were tested as antimicrobial agents with several different industrially relevant bacteria. The General Aerobic Bacteria isolated and used for this testing were identified as Pseudomonas aeruginosa and Enterobacter aggolomerans. Wild strain Sulfate Reducing Bacteria and Acid Producing Bacteria isolated from the produced fluids was also used. They were placed in a microtiter plate, where a high throughput test can be performed to determine MIC (minimum inhibitor concentration). Samples were tested at the following doses (1000, 500, 250, 125, 62.5, 31.2, 15.6, 7.8, 3.9, and 1.95 ppm) and concentration was calculated based on the initial GDA concentration (15 w/v %).
(§2) The antimicrobial testing results shown in FIG. 13 summarizes the MIC of each sample for different bacteria. The MIC is determined after 24 hours of incubation for the bacterial plates.

[2] = system: APB (Acid Producing Bacteria); experiment: Microtiter MIC study, acid producing bacteria; format: cell-based; details: 24 hours incubation; concentration based on initial GDA concentration (15 w/v %)
Protocol: as §1, §2

[3] = system: SRB (Sulfate Reducing Bacteria); experiment: Microtiter MIC study, sulfate reducing bacteria; format: cell-based, Wild strain Sulfate Reducing Bacteria; details: 24 hours incubation; concentration based on initial GDA concentration (15 w/v %)
Protocol: as §1, §2

Row | MIC ([1]; Pseudomonas aeruginosa, 24 hours incubation, concentration based on initial GDA concentration (15 w/v %)) [µg/mL] | MIC [2] [µg/mL] | MIC, SRB (Sulfate Reducing Bacteria) [3] [ppm] | SMILES | antimicrobial activity ([1]; inferred from Sample C result, all three bacteria tested)
1 | – | – | – | Oc1ccc(O)c(O)c1O (single isomer, unassigned) [1,2,3,4-tetrahydroxybenzene] | good antimicrobial activity
2 | 1000 (≈ 9.99 mM) | 500 (≈ 4.99 mM) | 500 | O=CCCCC=O [Glutaraldehyde - 50%, Glutaraldehyde] | –
